According to PubChem BioAssay (NCI):
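Grown in 96-well plates, cells were treated for 48 hours with each compound at five concentrations. Insufficient inhibition: endpoint recorded as highest concentration tested. At the TGI there is no net growth.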

Columns and labels:
Experiment in all cases: NCI tumour cell line growth inhibition, 48 h
[1] = system: A498 renal
[2] = system: A549 NSCLC
[3] = system: CAKI-1 renal
[4] = system: CCRF-CEM leukemia
[5] = system: COLO 205 colon
[6] = system: DLD-1 colon
[7] = system: DMS 114 small cell lung
[8] = system: DMS 273 small cell lung
[9] = system: EKVX NSCLC
[10] = system: HCC-2998 colon
[11] = system: HCT-15 colon
[12] = system: HL-60(TB) leukemia
[13] = system: HOP-18 NSCLC
[14] = system: HOP-62 NSCLC
[15] = system: HOP-92 NSCLC
[16] = system: HT29 colon
[17] = system: IGROV1 ovarian
[18] = system: K-562 leukemia
[19] = system: KM12 colon
[20] = system: KM20L2 colon
[21] = system: LOX IMVI melanoma
[22] = system: M19-MEL melanoma
[23] = system: MCF7 breast
[24] = system: MOLT-4 leukemia
[25] = system: NCI-H23 lung
[26] = system: NCI-H460 lung
[27] = system: NCI-H522 lung
[28] = system: NCI/ADR-RES ovarian
[29] = system: OVCAR-3 ovarian
[30] = system: OVCAR-4 ovarian
[31] = system: OVCAR-5 ovarian
[32] = system: OVCAR-8 ovarian
[33] = system: P388 leukemia
[34] = system: P388/ADR leukemia
[35] = system: RPMI-8226 leukemia
[36] = system: SF-295 CNS
[37] = system: SF-539 CNS
[38] = system: SK-MEL-2 melanoma
[39] = system: SK-MEL-5 melanoma
[40] = system: SK-OV-3 ovarian
[41] = system: SN12C renal
[42] = system: SN12K1 renal
[43] = system: SNB-19 CNS
[44] = system: SNB-75 CNS
[45] = system: SNB-78 CNS
[46] = system: SW-620 colon
[47] = system: U251 CNS
[48] = system: UACC-257 melanoma
[49] = system: UACC-62 melanoma
[50] = system: UO-31 renal
[51] = system: XF 498 CNS
[52] = system: 786-0 renal
[53] = system: ACHN renal
[54] = system: HCT-116 colon
[55] = system: LXFL 529 NSCLC
[56] = system: M14 melanoma
[57] = system: MALME-3M melanoma
[58] = system: RXF 393 renal
[59] = system: RXF-631 renal
[60] = system: SF-268 CNS
[61] = system: SK-MEL-28 melanoma
[62] = system: SR leukemia
[63] = system: TK-10 renal

C[C@@H]1C[C@]2(C[C@@H](C)[C@H]3C(C[C@@]4(C)CCC[C@@H]5C6=C[C@H](CCC34C)OC6=CC(=O)OC5(C)C)O2)OC1=O (stereo partly specified)
TGI [1]: > 51.5 µM
TGI [2]: > 51.5 µM
TGI [3]: > 51.5 µM
TGI [4]: > 51.5 µM
TGI [5]: > 51.5 µM
TGI [6]: > 51.5 µM
TGI [7]: > 51.5 µM
TGI [8]: > 51.5 µM
TGI [9]: > 51.5 µM
TGI [10]: > 51.5 µM
TGI [11]: > 51.5 µM
TGI [12]: > 51.5 µM
TGI [13]: > 51.5 µM
TGI [14]: > 51.5 µM
TGI [15]: > 51.5 µM
TGI [16]: > 51.5 µM
TGI [17]: > 51.5 µM
TGI [18]: > 51.5 µM
TGI [19]: > 51.5 µM
TGI [20]: > 51.5 µM
TGI [21]: > 51.5 µM
TGI [22]: > 51.5 µM
TGI [23]: > 51.5 µM
TGI [24]: > 51.5 µM
TGI [25]: > 51.5 µM
TGI [26]: > 51.5 µM
TGI [27]: > 51.5 µM
TGI [28]: > 51.5 µM
TGI [29]: > 51.5 µM
TGI [30]: > 51.5 µM
TGI [31]: > 51.5 µM
TGI [32]: > 51.5 µM
TGI [33]: > 51.5 µM
TGI [34]: > 51.5 µM
TGI [35]: > 51.5 µM
TGI [36]: > 51.5 µM
TGI [37]: > 51.5 µM
TGI [38]: > 51.5 µM
TGI [39]: > 51.5 µM
TGI [40]: > 51.5 µM
TGI [41]: > 51.5 µM
TGI [42]: > 51.5 µM
TGI [43]: > 51.5 µM
TGI [44]: 47.5 µM
TGI [45]: > 51.5 µM
TGI [46]: > 51.5 µM
TGI [47]: > 51.5 µM
TGI [48]: > 51.5 µM
TGI [49]: > 51.5 µM
TGI [50]: > 51.5 µM
TGI [51]: > 51.5 µM

Cn1cc(NC(=O)c2cc(NC(=O)Nc3cc(C(=O)Nc4cc(C(=O)NCCC(=N)N)n(C)c4)n(C)c3)cn2C)cc1C(=O)NCCC(=N)N
TGI [52]: 38.1 µM
TGI [1]: 63.2 µM
TGI [2]: 83.4 µM
TGI [53]: 57.9 µM
TGI [3]: 92.1 µM
TGI [4]: 77 µM
TGI [5]: 92.9 µM
TGI [6]: > 100 µM
TGI [7]: > 100 µM
TGI [8]: 29.6 µM
TGI [9]: > 100 µM
TGI [10]: > 100 µM
TGI [54]: > 100 µM
TGI [11]: > 100 µM
TGI [12]: > 100 µM
TGI [13]: > 100 µM
TGI [14]: > 100 µM
TGI [15]: > 100 µM
TGI [16]: > 100 µM
TGI [17]: 68.7 µM
TGI [18]: > 100 µM
TGI [19]: 36.8 µM
TGI [20]: > 100 µM
TGI [21]: 70.1 µM
TGI [55]: > 100 µM
TGI [56]: 57.2 µM
TGI [22]: 83.1 µM
TGI [57]: > 100 µM
TGI [24]: > 100 µM
TGI [25]: > 100 µM
TGI [26]: 55.3 µM
TGI [29]: > 100 µM
TGI [30]: > 100 µM
TGI [31]: > 100 µM
TGI [32]: 50 µM
TGI [58]: 42.9 µM
TGI [59]: 56.9 µM
TGI [60]: > 100 µM
TGI [36]: 86 µM
TGI [37]: 35.2 µM
TGI [61]: > 100 µM
TGI [39]: 53.1 µM
TGI [40]: > 100 µM
TGI [41]: > 100 µM
TGI [43]: > 100 µM
TGI [44]: 67.2 µM
TGI [45]: 82 µM
TGI [62]: > 100 µM
TGI [46]: > 100 µM
TGI [63]: 54.7 µM
TGI [47]: 69.9 µM
TGI [48]: 45.5 µM
TGI [49]: 53.2 µM
TGI [50]: > 100 µM
TGI [51]: 45.8 µM
